{"source": "patent US20230416225A1", "about": "“DIAMINOPYRIMIDINE CARBOXAMIDE INHIBITORS OF HPK1” (MERCK SHARP & DOHME LLC, priority 2020, published 2023)", "target": "T1, Human HPK1, catalytic domain (Homo sapiens, UniProt Q92918)", "T1 construct": "purchased Carna", "T1 sequence (Q92918 1-346)": "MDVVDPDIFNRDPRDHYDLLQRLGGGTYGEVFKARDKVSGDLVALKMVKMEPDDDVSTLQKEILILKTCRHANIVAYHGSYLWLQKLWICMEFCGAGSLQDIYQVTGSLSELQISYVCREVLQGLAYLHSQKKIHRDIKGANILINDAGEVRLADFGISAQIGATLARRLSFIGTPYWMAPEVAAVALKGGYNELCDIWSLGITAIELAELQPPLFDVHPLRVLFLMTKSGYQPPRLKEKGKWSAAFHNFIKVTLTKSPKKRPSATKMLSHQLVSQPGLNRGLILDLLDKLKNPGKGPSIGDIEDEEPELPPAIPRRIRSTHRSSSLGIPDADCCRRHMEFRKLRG", "test": "HPK1-SLP76 TR-FRET assay", "assay_type": "biochemical", "details": "75 pM HPK1, 10 uM ATP, 10 nM SLP76, 30 min compound pre-incubation", "data": [{"smiles": "COc1c(F)cc(Nc2ncc(C(N)=O)c(Nc3cccc4c3CCNC4=O)n2)cc1F", "note": "[Example 25-40, 2-[(3,5-difluoro-4-methoxyphenyl)amino]-4-[(1-oxo-1,2,3,4-tetrahydroisoquinolin-5-yl)amino]pyrimidine-5-carboxamide]", "values": [{"measurement": "IC50", "value": 38.7, "unit": "nM"}]}, {"smiles": "COc1cc2c(cc1Nc1ncc(C(N)=O)c(Nc3ccccc3Br)n1)CN(C(C)=O)CC2", "note": "[Example 12-2, 2-[(2-acetyl-6-methoxy-1,2,3,4-tetrahydroisoquinolin-7-yl)amino]-4-[(2-bromophenyl)amino]pyrimidine-5-carboxamide]", "values": [{"measurement": "IC50", "value": 244, "unit": "nM"}]}, {"smiles": "COc1cc2c(cc1Nc1ncc(C(N)=O)c(Nc3ccnn3C)n1)CN(C)CC2", "note": "[Example 7-88, 2-((6-methoxy-2-methyl-1,2,3,4-tetrahydroisoquinolin-7-yl)amino)-4-((1-methyl-1H-pyrazol-5-yl)amino)pyrimidine-5-carboxamide]", "values": [{"measurement": "IC50", "value": 9.16, "unit": "nM"}]}, {"smiles": "COCCOCCOCCCN1CCc2cc(OC)c(Nc3ncc(C(N)=O)c(Nc4ccccc4Br)n3)cc2C1", "note": "[Example 9-5, 4-((2-bromophenyl)amino)-2-((6-methoxy-2-(3-(2-(2-methoxyethoxy)ethoxy)propyl)-1,2,3,4-tetrahydroisoquinolin-7-yl)amino)pyrimidine-5-carboxamide]", "values": [{"measurement": "IC50", "value": 0.71, "unit": "nM"}]}, {"smiles": "COc1cc2c(cc1Nc1ncc(C(N)=O)c(NC(C)c3ccccc3C(F)(F)F)n1)CN(C)CC2", "note": "(stereo not drawn) [Example 26-22, 2-[(6-methoxy-2-methyl-1,2,3,4-tetrahydroisoquinolin-7-yl)amino]-4-({1-[2-(trifluoromethyl)phenyl]ethyl}amino)pyrimidine-5-carboxamide]", "values": [{"measurement": "IC50", "value": 1.43, "unit": "nM"}]}, {"smiles": "COc1cc2c(cc1Nc1ncc(C(N)=O)c(Nc3ccc(C)cc3Cl)n1)CN(C)CC2", "note": "[Example 4-19, 4-[(2-chloro-4-methylpheny 1)amino]-2-[(6-methoxy-2-methyl-1,2,3,4-tetrahydroisoquinolin-7-yl)amino]pyrimidine-5-carboxamide]", "values": [{"measurement": "IC50", "value": 0.38, "unit": "nM"}]}, {"smiles": "COc1cc2c(cc1Nc1ncc(C(N)=O)c(Nc3cc(C(F)(F)F)cc4c3CCNC4)n1)CN(C)CC2", "note": "[Example 7-66, 2-[(6-methoxy-2-methyl-1,2,3,4-tetrahydroisoquinolin-7-yl)amino]-4-{[7-(trifluoromethyl)-1,2,3,4-tetrahydroisoquinolin-5-yl]amino}pyrimidine-5-carboxamide]", "values": [{"measurement": "IC50", "value": 0.15, "unit": "nM"}]}, {"smiles": "C=CCCCN1CCc2cc(OC)c(Nc3ncc(C(N)=O)c(Nc4c(F)cc(Br)cc4F)n3)cc2C1", "note": "[Example 10-4, 4-(4-bromo-2,6-difluoroanilino)-2-{[6-methoxy-2-(pent-4-en-1-yl)-1,2,3,4-tetrahydroisoquinolin-7-yl]amino}pyrimidine-5-carboxamide]", "values": [{"measurement": "IC50", "value": 67.1, "unit": "nM"}]}, {"smiles": "COc1cc2c(cc1Nc1ncc(C(N)=O)c(Nc3cccc4c3CCN(S(C)(=O)=O)C4)n1)CN(C)CC2", "note": "[Example 7-31, 2-[(6-methoxy-2-methyl-1,2,3,4-tetrahydroisoquinolin-7-yl)amino]-4-{[2-(methylsulfonyl)-1,2,3,4-tetrahydroisoquinolin-5-yl]amino}pyrimidine-5-carboxamide]", "values": [{"measurement": "IC50", "value": 0.15, "unit": "nM"}]}, {"smiles": "Cc1cccc(F)c1Nc1nc(Nc2cnn(CC(C)(C)O)c2)ncc1C(N)=O", "note": "[Example 4-23, 4-[(2-fluoro-6-methylphenyl)amino]-2-{[1-(2-hydroxy-2-methylpropyl)-1H-pyrazol-4-yl]amino}pyrimidine-5-carboxamide]", "values": [{"measurement": "IC50", "value": 443, "unit": "nM"}]}, {"smiles": "COc1cc2c(cc1Nc1ncc(C(N)=O)c(Nc3ccccc3CC(C)c3ccccc3)n1)CN(C)CC2", "note": "(stereo not drawn) [Example 13-7, 2-[(6-methoxy-2-methyl-1,2,3,4-tetrahydroisoquinolin-7-yl)amino]-4-{[2-(2-phenylpropyl)phenyl]amino}pyrimidine-5-carboxamide]", "values": [{"measurement": "IC50", "value": 215, "unit": "nM"}]}, {"smiles": "CS(=O)(=O)c1ccc(Nc2ncc(C(N)=O)c(Nc3c(F)cccc3CO)n2)cc1", "note": "[Example 7-65, 4-{[2-fluoro-6-(hydroxymethyl)phenyl]amino}-2-{[4-(methylsulfonyl)phenyl]amino}py-rimidine-5-carboxamide]", "values": [{"measurement": "IC50", "value": 91.5, "unit": "nM"}]}]}
